Test results from patent US20110230476A1, “PI3 KINASE INHIBITORS AND USES THEREOF” (AVILA THERAPEUTICS, INC., priority 2009, published 2011).
Entries after “also recorded” stand apart in the source; their conditions may differ.

Assays:
HCT116 cells = test: HCT-116 cell proliferation assay; format: cell-based; conditions: Homo sapiens, 72 hours, Cell Titer Glo
Description: HCT-116 Cell Proliferation Assay
(§1) For the HCT116 Proliferation Assay, 3000 cells per well were plated in Growth Media (DMEM, 10% FBS, 1% 1-glutamine, 1% penicillin/streptomycin) in 96 well plates. The following day, compounds were added to duplicate wells at concentrations of 10 uM and 3-fold dilutions down to 40 nM. The plates were returned to the incubator for 72 hours and then the assays were developed using Cell Titer Glo (Promega, Madison, Wis.) according to manufacturer's instructions.

SK-OV-3 cells = test: SK-OV-3 cell proliferation assay; format: cell-based; conditions: Homo sapiens; SK-OV-3 proliferation, 72 hours, Cell Titer Glo
Description: SK-OV-3 Cell Proliferation Assay
as §1, with “SK-OV-3 proliferation” for “HCT116 Proliferation”, “5000” for “3000”

PI3K = PI3K HCT116 cellular assay (Western blot); format: cell-based; conditions: Homo sapiens, HCT-116, HCT116 colon cancer cells, 1 hour incubation, read-out: PI3K Inhibition
Description: PI3K HCT116 Cellular Assay
Selected compounds were assayed in HCT116 colon cancer cells. […] Cells were then washed with PBS, lysed and the protein lysates were then recovered and analyzed by Western blot.

SKOV-3 tumors = test: Tumor growth inhibition in vivo; conditions: nude mice, subcutaneous SKOV-3 tumors; GDC-941 orally, II-a-3 I.P., 50-100 mg/Kg/QD, 21 days
Description: Tumor Growth Inhibition In Vivo
The in vivo experiment was performed at Piedmont Research Center (Research Triangle Park, N.C.). Nude mice were implanted with SKOV-3 tumors subcutaneously. […] Dosing continued for 21 days. Tumor volume was measured twice a week.

PI3 kinase = test: Comparison of covalent and non-covalent inhibitors (Tables 18 and 19): prolonged PD, mechanism; conditions: Table 19
Description: “A” designates ≦10 nM; “B” designates 10-100 nM; and “C” designates 100-1000 nM

p110alpha = p110alpha (Homo sapiens, UniProt P42336); test: In vitro occupancy in SKOV-3 cells with covalent probe; format: cell-based; conditions: covalent probe XIV-a-3 or XIV-a-4
PI3Kα (p110α/p85α) = molecular target: T1, PI3Kα (p110α/p85α) (Homo sapiens, UniProt P42336); test: HTRF assay, potency against active PI3Kα; format: biochemical; conditions: HTRF; [ATP]=50 μM, [di-C8-PIP2]=10 μM; 30 min pre-incubation; read-out: PI3Kα Inhibition
T1 construct: purchased BPS Bioscience (San Diego, Calif.) or Millipore (Billerica, Mass.)
Outline: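 Active p110/p85α lipid kinase reactions were started with ATP and run 30-60 minutes at 25 °C, then stopped and developed with HTRF detection mix. HTRF ratio converted to % inhibition against ±enzyme controls; IC50 from log[inhibitor] vs response, variable slope.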

SKOV3 cells = test: GI50 determinations in SKOV3 cells; format: cell-based; conditions: Homo sapiens, SK-OV-3; SKOV3 cells, 96 hours, Cell Titer Glo
Description: GI50 Determinations in SKOV3 Cells
A standard curve ranging from 10,000 to 50,000 cells was set up in a separate plate and allowed to adhere to the plate for 4-6 hours, at which time the plate was developed using Cell Titer-Glow (Promega, Madison, Wis.) according to manufacturer's instructions.
The next morning, 3-fold compound dilutions ranging from 10,000 nM to 40 nM were prepared in Proliferation Media containing 1% DMSO. 20 ul of each dilution was added to the SKOV3 cells plated the previous day resulting in a dose response curve from 1000 nM to 4 nM. The cells were incubated for 96 hours and then developed with Cell Titer Glo.
The cell numbers at the end of the assay were determined using the standard curve generated at the start of the assay. Growth inhibition was calculated using the following formulas and GI50s were determined by plotting the % growth inhibition vs. Log compound concentration in GraphPad.
%growth=100×(T−T0)/(C−T0)
T=Cell Number at end of assay T0=Cell Number at start of assay (5000) C=Number of cells in DMSO controls at end of assay
%growth inhibition=100−%growth

PI3Kα [1] = molecular target: T2, PI3Kα (Homo sapiens, UniProt P42336); test: Trypsin digest and MS-MS analysis of compound-treated PI3Kα; format: binding; parameters: purchased Millipore 14-602; conditions: in-gel trypsin digest
Description: (§2) The PI3Kα protein band was then excised and subjected to an in-gel trypsin digest by reducing the protein with DTT, alkylating the thiols with iodoacetamide, and then incubating the protein gel band with trypsin overnight in a 37° C. water bath. The digest was then stopped by addition of trifluoroacetic acid, and peptides were removed from gel band by sonicating with increasing amounts of acetonitrile (0%, 30%, & 60%). Peptides were then purified using C18 ziptips, spotted on the MALDI target plate with α-cyano-4-hydroxycinnamic acid as the desorption matrix (10 mg/ml in 0.1% TFA:Acetonitrile 50:50), and analyzed in reflectron mode.
as §2, with “trifluoro acetic” for “trifluoroacetic”

PI3Kβ (p110β/p85α) = molecular target: T3, PI3Kβ (p110β/p85α) (Homo sapiens, UniProt P42338); test: HTRF assay, potency against active PI3Kβ; format: biochemical; conditions: [ATP]=50 μM, [di-C8-PIP2]=10 μM, 30 min pre-incubation, read-out: PI3Kβ Inhibition
T3 construct: purchased BPS Bioscience (San Diego, Calif.) or Millipore (Billerica, Mass.)
Description: Homogeneous Time Resolved Fluorescence (HTRF) Assay Protocol for Potency Assessment Against the Active Forms of PI3Kα, PI3Kβ, and PI3Kγ
The mechanics of the assay platform are best described by the vendor (Millipore, Billerica, Mass.) on their website at the following URL: www.millipore.com/coa/tech1/74jt4z.
Briefly, Stop solution (Stop A, #33-007 and Stop B, #33-009; 3:1 ratio) and Detection Mix (from DMC, #33-015 with DMA, #33-011 and DMB, #33-013; 18:1:1 ratio) were prepared as recommended by the manufacturer about 2 hrs prior to use. […] Lipid kinase reactions were started with the addition of 5 μL of ATP solution, mixed for 15 sec on a rotary plate shaker and incubated for 30-60 minutes at 25° C. Next, reactions were stopped with a 5 μL addition of Stop solution immediately followed by a 5 μL volume of Detection Mix. […] At the conclusion of each assay, the HTRF ratio from fluorescence emission values for each well was calculated and % Inhibition determined from averaged controls wells (+/−PI3K enzyme). % Inhibition values for each compound were then plotted against inhibitor concentration to estimate IC50 from log [Inhibitor] vs Response, Variable Slope model in GraphPad Prism from GraphPad Software (San Diego, Calif.).

PI3Kα [2] = molecular target: T2, PI3Kα; test: Mass spectrometry of intact PI3Kα (Millipore, 14-602), 1 hr incubation; format: binding; parameters: purchased Millipore 14-602; conditions: 10× fold excess of compound, MALDI
Description: Mass Spectrometry for PI3K
Aliquots (5 μl) of the samples were diluted with 15 μl of 0.2% TFA prior to micro C4 ZipTipping directly onto the MALDI target using Sinapinic acid as the desorption matrix (10 mg/ml in 0.1% TFA:Acetonitrile 50:50).

Phospho-Akt(Ser473) = test: Dose response in SKOV3 cells as determined by in-cell Western; format: cell-based; conditions: Homo sapiens, SK-OV-3; SKOV3 cells, 1 hr; read-out: pAKT Inhibition in cell Western
Outline: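 SKOV3 cells treated with compound for 1 hr, then formaldehyde-fixed, permeabilised and stained overnight for phospho-Akt(Ser473) with anti-tubulin as a reference. Infrared secondary antibodies read at 680 and 800 nm channels by in-cell Western imaging.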

T2 sequence (P42336 whole entry): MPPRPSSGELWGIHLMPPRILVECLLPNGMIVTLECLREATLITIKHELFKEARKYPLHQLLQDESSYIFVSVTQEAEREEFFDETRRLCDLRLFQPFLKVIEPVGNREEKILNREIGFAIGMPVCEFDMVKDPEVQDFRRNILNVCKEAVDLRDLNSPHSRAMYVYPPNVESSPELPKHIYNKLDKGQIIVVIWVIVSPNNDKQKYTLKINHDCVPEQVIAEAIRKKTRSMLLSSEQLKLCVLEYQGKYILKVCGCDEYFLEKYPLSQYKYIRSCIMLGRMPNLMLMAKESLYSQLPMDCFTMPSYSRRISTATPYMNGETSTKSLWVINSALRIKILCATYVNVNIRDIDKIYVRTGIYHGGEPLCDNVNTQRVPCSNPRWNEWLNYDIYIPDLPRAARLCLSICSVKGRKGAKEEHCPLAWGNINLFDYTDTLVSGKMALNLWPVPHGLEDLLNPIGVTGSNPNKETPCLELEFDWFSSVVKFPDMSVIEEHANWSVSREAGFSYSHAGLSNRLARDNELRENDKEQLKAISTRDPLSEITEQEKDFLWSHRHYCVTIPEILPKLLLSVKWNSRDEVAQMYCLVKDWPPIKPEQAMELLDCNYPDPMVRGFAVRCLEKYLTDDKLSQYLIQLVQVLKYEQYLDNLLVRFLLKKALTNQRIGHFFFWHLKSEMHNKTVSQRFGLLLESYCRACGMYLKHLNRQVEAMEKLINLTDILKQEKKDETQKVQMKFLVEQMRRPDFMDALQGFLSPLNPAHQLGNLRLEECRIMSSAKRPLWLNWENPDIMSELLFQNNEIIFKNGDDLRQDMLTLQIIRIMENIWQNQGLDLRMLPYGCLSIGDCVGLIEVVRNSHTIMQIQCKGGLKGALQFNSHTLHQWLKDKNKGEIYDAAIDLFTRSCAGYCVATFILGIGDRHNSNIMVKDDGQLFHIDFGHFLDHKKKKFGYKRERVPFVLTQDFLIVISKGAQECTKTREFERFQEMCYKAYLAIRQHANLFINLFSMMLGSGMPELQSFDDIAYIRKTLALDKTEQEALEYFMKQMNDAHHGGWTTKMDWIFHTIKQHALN
T2 sequence (P27986 whole entry partner): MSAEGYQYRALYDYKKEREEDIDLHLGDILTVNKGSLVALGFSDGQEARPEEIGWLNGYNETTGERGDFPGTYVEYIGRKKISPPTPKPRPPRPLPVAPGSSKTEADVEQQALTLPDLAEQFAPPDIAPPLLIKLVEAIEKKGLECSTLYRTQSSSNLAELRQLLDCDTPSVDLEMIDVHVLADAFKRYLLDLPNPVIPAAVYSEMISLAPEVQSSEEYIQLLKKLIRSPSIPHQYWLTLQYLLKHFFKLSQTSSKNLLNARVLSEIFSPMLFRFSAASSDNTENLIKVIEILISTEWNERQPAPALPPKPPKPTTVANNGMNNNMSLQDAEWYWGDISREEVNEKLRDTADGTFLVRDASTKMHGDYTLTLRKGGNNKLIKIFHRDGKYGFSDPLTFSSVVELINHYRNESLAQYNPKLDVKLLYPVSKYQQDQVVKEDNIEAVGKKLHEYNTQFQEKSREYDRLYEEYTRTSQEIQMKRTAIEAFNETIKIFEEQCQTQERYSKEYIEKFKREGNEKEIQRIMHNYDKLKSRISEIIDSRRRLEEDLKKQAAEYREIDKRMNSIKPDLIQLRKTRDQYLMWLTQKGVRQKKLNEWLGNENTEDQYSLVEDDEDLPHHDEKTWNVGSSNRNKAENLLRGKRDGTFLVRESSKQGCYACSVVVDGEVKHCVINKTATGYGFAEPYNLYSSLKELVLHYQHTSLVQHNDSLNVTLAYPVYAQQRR
T1 sequence (P42336 whole entry): as the sequence (P42336 whole entry) above
T1 sequence (P27986 whole entry partner): as the sequence (P27986 whole entry partner) above
Chain of p110alpha (P42336 whole entry): as the sequence (P42336 whole entry) above
T3 sequence (P42338 whole entry): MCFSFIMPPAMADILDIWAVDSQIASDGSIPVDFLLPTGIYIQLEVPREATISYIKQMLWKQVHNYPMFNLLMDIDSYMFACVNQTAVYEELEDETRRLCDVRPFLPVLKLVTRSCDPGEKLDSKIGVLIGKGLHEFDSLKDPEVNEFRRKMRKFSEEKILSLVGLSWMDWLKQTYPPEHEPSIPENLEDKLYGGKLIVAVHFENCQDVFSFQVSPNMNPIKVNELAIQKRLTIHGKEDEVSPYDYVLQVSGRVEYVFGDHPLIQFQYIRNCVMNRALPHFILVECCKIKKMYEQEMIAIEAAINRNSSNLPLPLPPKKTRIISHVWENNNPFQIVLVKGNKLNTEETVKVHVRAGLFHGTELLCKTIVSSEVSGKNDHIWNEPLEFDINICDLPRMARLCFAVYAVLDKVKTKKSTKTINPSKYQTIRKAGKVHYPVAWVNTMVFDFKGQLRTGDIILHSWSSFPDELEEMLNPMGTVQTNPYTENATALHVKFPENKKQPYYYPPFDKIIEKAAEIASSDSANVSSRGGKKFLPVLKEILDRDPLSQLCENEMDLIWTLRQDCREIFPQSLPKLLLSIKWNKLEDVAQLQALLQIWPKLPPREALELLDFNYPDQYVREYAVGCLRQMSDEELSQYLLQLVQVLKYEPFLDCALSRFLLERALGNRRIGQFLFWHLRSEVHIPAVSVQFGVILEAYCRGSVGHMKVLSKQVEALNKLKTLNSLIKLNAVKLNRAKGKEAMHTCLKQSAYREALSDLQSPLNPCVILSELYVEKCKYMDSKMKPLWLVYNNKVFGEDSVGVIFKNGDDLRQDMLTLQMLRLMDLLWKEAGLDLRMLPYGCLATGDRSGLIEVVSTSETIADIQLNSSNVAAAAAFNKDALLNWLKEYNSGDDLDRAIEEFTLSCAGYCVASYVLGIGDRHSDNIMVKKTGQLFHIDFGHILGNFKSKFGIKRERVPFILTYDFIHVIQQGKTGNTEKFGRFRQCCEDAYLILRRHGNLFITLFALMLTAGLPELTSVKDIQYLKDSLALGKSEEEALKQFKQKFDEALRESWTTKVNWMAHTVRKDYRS
T3 sequence (P27986 whole entry partner): as the sequence (P27986 whole entry partner) above

Row | Compound | EC50 (HCT116 cells) | EC50 (SK-OV-3 cells) | EC50 (PI3K) | tumor growth (SKOV-3 tumors) | Prolonged PD (PI3 kinase) | target occupancy (competition with the covalent probe) (p110alpha) | IC50 (PI3Kα (p110α/p85α)) | GI50 (SKOV3 cells) | site on PI3Kα that is covalently modified (PI3Kα [1]) | IC50 (PI3Kβ (p110β/p85α)) | covalent modification of PI3Kα (PI3Kα [2]) | mass shift of PI3Kα (PI3Kα [2]) | mass shift of PI3Kα, per cent in brackets (PI3Kα [2]) | EC50 (Phospho-Akt(Ser473))
1 | CS(=O)(=O)N1CCN(Cc2cc3nc(-c4cccc5[nH]ncc45)nc(N4CCOCC4)c3s2)CC1 [GDC-941, reference compound] | 1000 to 10000 nM | 1000 to 10000 nM | […] | Inhibition of tumor growth | No | does not compete with the covalent probe | – | – | – | – | – | – | – | –
2 | C=CC(=O)Nc1ccc(C(=O)N2CC=C(c3cc4nc(-c5cccc6[nH]ncc56)nc(N5CCOCC5)c4s3)CC2)cc1 [II-a-144, N-(4-(4-(2-(1H-indazol-4-yl)-4-morpholinothieno[3,2-d]pyrimidin-6-yl)-1,2,3,6-tetrahydropyridine-1-carbonyl)phenyl)acrylamide] | – | – | – | – | – | – | 100 to 1000 nM | 100 to 1000 nM | Cys-862; also recorded: peptide ^853NSHTIMQIQCK^863 | 100 to 1000 nM | complete modification; also recorded: covalent modification | 575 Da | 97% | 100 to 1000 nM
